Experiments:
[1] = compound: COC1=CC=C(C=C1)CN2C=CC3=C2C=C(C=C3)C(=O)NO; assay: relative viability (nuclei count vs DMSO), 5 days (fraction); higher = more cells survive
Outline: (§1)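 Lung cancer cell lines in 1536-well plates were exposed by pinning to five library-drug doses (not always all listed) √10 apart, following an overnight hold at 37 °C. MetaXpress counted Hoechst-stained nuclei from 4× images taken after 5 days without medium change. Viability is the median ratio of treated-well to vehicle-well nuclei across plates. Plates required control CV below 25% and at least one doubling.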

Veliparib = compound: C[C@]1(c2nc3c(C(N)=O)cccc3[nH]2)CCCN1 [Veliparib]; assay: as above
Outline: as §1

Cell Line	relative viability ([1]; 0.08 µM)	relative viability ([1]; 0.253 µM)	relative viability ([1]; 0.8 µM)	relative viability ([1]; 2.53 µM)	relative viability ([1]; 8 µM)	relative viability (Veliparib; 0.02 µM)	relative viability (Veliparib; 0.06325 µM)	relative viability (Veliparib; 0.2 µM)	relative viability (Veliparib; 0.6325 µM)	relative viability (Veliparib; 2 µM)
NCI-H2347	0.911	1.06	1.1	1.17	0.974	1.08	0.936	0.94	0.971	0.898
NCI-H2405	0.908	0.934	1	1.06	0.913	0.973	0.89	1.01	1	0.691
NCI-H3122	0.971	0.984	0.954	0.989	0.955	1	1.01	0.974	0.957	1
PC-3 [JPC-3]	1	1.03	1.11	1.08	0.968	1	0.968	1.05	1.04	1.06
PC-14	0.84	0.939	0.998	1.01	0.904	0.805	0.936	0.974	0.955	0.993
RERF-LC-KJ	0.956	1.03	0.984	1.03	0.969	0.964	0.939	1.01	0.938	1.01
SK-LU-1	0.974	0.997	1.02	1.04	0.966	1.04	1.06	1.06	0.98	1.01
SK-MES-1	1.07	1.02	0.988	1.03	0.997	1.03	0.939	0.977	0.961	1.03
SW 900	0.862	0.802	0.934	0.941	0.732	–	0.645	0.909	0.807	0.777
UMC-11	0.711	0.965	1.02	0.907	0.964	1.09	0.997	0.964	0.926	0.983
